Experimental data from patent US20060074243A1, “Hydroxamic acid and amide compounds and their use as protease inhibitors” (Pharmacia Corporation, priority 2002, published 2006).

How the values were obtained:
Assay in all cases: In vitro MMP inhibition analysis (fluorogenic peptide substrate cleavage), Ki
Assay type in all cases: biochemical
Human recombinant MMP-1 = target: T1, Human recombinant MMP-1 (Homo sapiens, UniProt P03956)
T1 construct: made in house; host or cells: MMP-1-transfected HT-1080 cells (spent media)
T1 sequence (P03956 100-469): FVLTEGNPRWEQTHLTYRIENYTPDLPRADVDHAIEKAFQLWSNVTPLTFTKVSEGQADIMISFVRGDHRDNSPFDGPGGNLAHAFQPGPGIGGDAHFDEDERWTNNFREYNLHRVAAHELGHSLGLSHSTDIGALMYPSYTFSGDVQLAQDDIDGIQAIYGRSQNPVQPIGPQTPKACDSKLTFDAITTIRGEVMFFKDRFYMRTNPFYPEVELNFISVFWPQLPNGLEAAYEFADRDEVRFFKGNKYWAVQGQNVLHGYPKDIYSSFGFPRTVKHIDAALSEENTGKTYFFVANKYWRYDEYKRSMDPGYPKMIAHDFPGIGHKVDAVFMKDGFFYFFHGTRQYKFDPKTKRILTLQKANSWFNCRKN
Description: (§1) Several compounds and salts were analyzed in an in vitro assay to determine their ability to inhibit the MMP cleavage of peptide substrates. Inhibition constant (Ki) were calculated from the assayed compound-MMP interactions.
(§2) Human recombinant MMP-1, MMP-2, MMP-9, MMP-13, and MMP-14 were used in this assay. All enzymes were prepared in Assignee's laboratories following usual laboratory procedures. Protocols for the preparation and use of these enzymes are available in the scientific literature. See, e.g., Enzyme Nomenclature (Academic Press, San Diego, Calif., 1992) (and the citations therein). See also, Frije et al., J. Biol. Chem., 26(24), 16766-73 (1994).
The MMP-1 proenzyme was purified from the spent media of MMP-1-transfected HT-1080 cells provided by Dr. Harold Welgus of Washington University (St. Louis, Mo.). The protein was purified on a zinc chelating column.
(§3) All MMPs were activated using 4-aminophenylmercuric acetate (“APMA”, Sigma Chemical, St. Louis, Mo.) or trypsin. MMP-9 also was activated using human recombinant MMP-3 (purified in Assignee's laboratory following standard cloning and purification techniques).
(§4) The following fluorogenic, methoxycoumarin-containing polypeptide substrate (I) was used in the MMP inhibition assays: MCA-ArgProLeuGlyLeuDpaAlaArgGluArgNH2 (I) “MCA” is 7-methoxycoumarin-4-yl acetyl. Substrate (I) was prepared Assignee's laboratory. In the absence of MMP inhibitory activity, the substrate is cleaved at the Gly-Leu peptide bond. This cleavage separates the highly fluorogenic peptide from the 2,4-dinitrophenyl quencher, thus resulting in increase of fluorescent intensity.
(§5) The stock solutions of the assayed compounds and salts were prepared in […] (DMSO). These stock solutions were diluted in Buffer A (100 mM Tris-HCl, 100 mM NaCl, 10 mM CaCl2, 0.05% polyoxyethylene 23 lauryl ether, pH 7.5) to obtain solutions with different compound concentrations, i.e., assay solutions with different concentrations of the assayed […] compound. The experiment controls contained the same amount of Buffer A/DMSO as the assayed sample, but contained none of the tested compound or salt.
(§6) The assays from which the Ki determinations were made were performed as follows. The assayed compound samples were incubated in separate wells of untreated white polystyrene plates (Nunc Nalgene International, Rochester, N.Y.), and analyzed on a Tecan SpectraFlour Plus plate reader. The excitation wavelength was 330 nm, and the emission wavelength—420 nm. All samples (assayed compounds and controls) were incubated in separate plate wells at room temperature for 1 hr in the presence of 4 μM of MMP substrate (I). In the absence of MMP inhibitory activity, substrate (I) was cleaved at the Gly-Leu bond resulting in an increase of relative fluorescence. Inhibition was observed as a reduced rate of this increase in relative fluorescence. […] This protocol is a modification of method by Knight et al., FEBS Lett., 296(3), 263-266 (1992). Apparent inhibitory constants were determined by non-linear regression of reaction velocity as a function of inhibitor and enzyme concentration using Morrison's equation, as described by Kuzmic, Anal. Biochem. 286, 45-50 (2000). Modifications were made in the non-linear regression method to allow a common control reaction rate and effective enzyme concentration to be shared between all dose-response relationships on a given assay plate. Since the substrate concentration was chosen to be at or below the Km, the apparent Ki's from this analysis were reported as Ki's without correction for the influence of substrate.
(§7) The above protocols were used to determine Ki constants for the compounds in Examples 2-35 above. All Ki values in Table 1 are given in nM units.

Human recombinant MMP-2 = target: T2, Human recombinant MMP-2 (Homo sapiens, UniProt P08253)
T2 construct: made in house; host or cells: MMP-2-transfected p2AHT2 cells
T2 sequence (P08253 110-660): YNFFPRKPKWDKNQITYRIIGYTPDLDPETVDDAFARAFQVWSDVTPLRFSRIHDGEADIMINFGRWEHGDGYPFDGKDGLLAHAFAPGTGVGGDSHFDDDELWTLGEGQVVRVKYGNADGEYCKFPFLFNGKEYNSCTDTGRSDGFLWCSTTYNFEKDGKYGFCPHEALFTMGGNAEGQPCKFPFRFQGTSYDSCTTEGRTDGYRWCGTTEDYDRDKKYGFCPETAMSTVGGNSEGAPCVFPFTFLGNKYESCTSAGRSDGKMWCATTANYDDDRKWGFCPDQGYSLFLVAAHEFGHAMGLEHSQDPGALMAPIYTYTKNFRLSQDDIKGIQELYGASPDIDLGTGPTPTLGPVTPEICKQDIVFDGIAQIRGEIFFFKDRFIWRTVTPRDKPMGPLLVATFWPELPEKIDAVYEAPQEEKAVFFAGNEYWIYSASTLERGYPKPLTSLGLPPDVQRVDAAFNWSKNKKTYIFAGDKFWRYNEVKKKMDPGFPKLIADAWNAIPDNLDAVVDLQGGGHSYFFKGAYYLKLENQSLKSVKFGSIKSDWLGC
Description: as §1, §2
The MMP-2 proenzyme was purified by gelatin Sepharose chromatography from MMP-2-transfected p2AHT2 cells provided by Dr. Gregory Goldberg of Washington University (St. Louis, Mo.).
as §3, §4, §5, §6, §7

Human recombinant MMP-9 = target: T3, Human recombinant MMP-9 (Homo sapiens, UniProt P14780)
T3 construct: made in house; host or cells: MMP-9-transfected HT1080 cells (spent media)
Description: as §1, §2
The MMP-9 proenzyme was purified by gelatin Sepharose chromatography from spent media of MMP-9-transfected HT1080 cells provided by Dr. Howard Welgus of Washington University (St. Louis, Mo.).
as §3, §4, §5, §6, §7

T3 sequence (P14780 107-707 limits assumed): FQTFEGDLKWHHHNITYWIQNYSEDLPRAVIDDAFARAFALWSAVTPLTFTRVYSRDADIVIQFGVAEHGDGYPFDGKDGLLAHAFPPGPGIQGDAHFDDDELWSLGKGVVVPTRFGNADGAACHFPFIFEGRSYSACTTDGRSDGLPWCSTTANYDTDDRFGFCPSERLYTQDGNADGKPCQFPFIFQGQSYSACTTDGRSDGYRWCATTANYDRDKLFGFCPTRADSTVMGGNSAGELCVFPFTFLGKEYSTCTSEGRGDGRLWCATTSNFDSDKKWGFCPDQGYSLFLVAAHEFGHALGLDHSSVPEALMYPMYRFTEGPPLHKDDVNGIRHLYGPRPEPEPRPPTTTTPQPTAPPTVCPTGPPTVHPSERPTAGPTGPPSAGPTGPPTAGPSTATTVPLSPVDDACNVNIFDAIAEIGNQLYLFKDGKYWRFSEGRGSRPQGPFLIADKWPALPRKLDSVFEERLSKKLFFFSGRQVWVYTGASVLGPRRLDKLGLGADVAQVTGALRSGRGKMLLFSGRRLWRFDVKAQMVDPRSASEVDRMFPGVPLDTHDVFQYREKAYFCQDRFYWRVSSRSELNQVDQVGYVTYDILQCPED

SMILES	Ki (Human recombinant MMP-1; Table 1)	Ki (Human recombinant MMP-2; Table 1)	Ki (Human recombinant MMP-9; Table 1)	Ki (Human recombinant MMP-1; Table 2)	Ki (Human recombinant MMP-2; Table 2)	Ki (Human recombinant MMP-9; Table 2)
O=C(NO)C1(S(=O)(=O)c2ccc(-c3cnc(CCC(F)(F)F)cn3)cc2)CCOCC1 [Example 62]	> 10000 nM	0.88 nM	1.83 nM	–	–	–
COCCN1CCC(C(=O)NO)(S(=O)(=O)c2ccc(-c3ccc(CCC(C)(F)F)cc3)cc2)CC1 [Example 63]	1750 nM	0.04 nM	0.08 nM	–	–	–
CCN1CCC(C(=O)NO)(S(=O)(=O)c2ccc(-c3cnc(CCC(C)(F)F)cn3)cc2)CC1 [Example 64]	> 10000 nM	1.65 nM	0.677 nM	–	–	–
COCCN1CCC(C(=O)NO)(S(=O)(=O)c2ccc(-c3cnc(CCC(C)(F)F)cn3)cc2)CC1 [Example 65]	> 10000 nM	0.952 nM	0.375 nM	–	–	–
CC(F)(F)CCc1cnc(-c2ccc(S(=O)(=O)C3(C(=O)NO)CCN(C4CC4)CC3)cc2)cn1 [Example 66]	> 10000 nM	0.79 nM	0.31 nM	–	–	–
COCCN1CCC(C(=O)NO)(S(=O)(=O)c2ccc(-c3ccc(CCC(C)(F)F)cn3)cc2)CC1 [Example 67]	8470 nM	0.14 nM	0.19 nM	–	–	–
O=C(NO)C1(S(=O)(=O)c2ccc(-c3ccc(OC(F)(F)C(F)F)cc3)cc2)CCOCC1 [Example 68]	231 nM	0.0611 nM	0.142 nM	–	–	–
O=C(NO)C1(S(=O)(=O)c2ccc(-c3ccc(CCCC(F)(F)F)cn3)cc2)CCOCC1 [Example 69]	3530 nM	0.322 nM	0.719 nM	–	–	–
CCCCOc1cnc(-c2ccc(S(=O)(=O)C3(C(=O)NO)CCOCC3)cc2)cn1 [Example 73]	–	–	–	1740 nM	0.0835 nM	0.112 nM
O=C(NO)C1(S(=O)(=O)c2ccc(-c3ccc(OCCCC(F)(F)F)cc3)cc2)CCOCC1 [Example 74]	–	–	–	1630 nM	0.304 nM	3.4 nM
CCCCCc1ccc(-c2ccc(S(=O)(=O)C3(C(=O)NO)CCOCC3)cc2)cc1 [Example 75]	–	–	–	3970 nM	0.674 nM	1.01 nM
CC(=O)Nc1cnc(-c2ccc(S(=O)(=O)C3(C(=O)NO)CCOCC3)cc2)cn1 [Example 76]	–	–	–	9630 nM	10.3 nM	114 nM
CCN1CCC(C(=O)NO)(S(=O)(=O)c2ccc(-c3ccc(OCCCCO)cc3)cc2)CC1 [Example 118]	–	–	–	2170 nM	0.146 nM	0.867 nM
CCCCOc1ccc(-c2ccc(S(=O)(=O)C3(C(=O)NO)CCN(CCOC)CC3)cc2)cc1 [Example 119]	–	–	–	1770 nM	0.093 nM	0.15 nM
CCCCOc1ccc(-c2ccc(S(=O)(=O)C3(C(=O)NO)CCN(C4CC4)CC3)cc2)cc1 [Example 120]	–	–	–	2460 nM	0.191 nM	0.336 nM
O=C(NO)C1(S(=O)(=O)c2ccc(-c3ncccn3)cc2)CCOCC1 [Example 121]	–	–	–	1600 nM	46.8 nM	57.9 nM
CCc1cnc(-c2ccc(S(=O)(=O)C3(C(=O)NO)CCOCC3)cc2)nc1 [Example 122]	–	–	–	3580 nM	5.67 nM	4.84 nM
CCc1csc(Nc2ccc(-c3ccc(S(=O)(=O)C4(C(=O)NO)CCOCC4)cc3)cc2)n1 [Example 124]	–	–	–	> 2500 nM	32.9 nM	191 nM
O=C(NO)C1(S(=O)(=O)c2ccc(-c3ccc(-n4cncn4)cc3)cc2)CCOCC1 [Example 126]	–	–	–	1240 nM	0.18 nM	1.92 nM
O=C(NO)C1(S(=O)(=O)c2ccc(-c3ccc(-n4ccnc4)cc3)cc2)CCOCC1 [Example 127]	–	–	–	1010 nM	0.147 nM	1.89 nM
O=C(NO)C1(S(=O)(=O)c2ccc(-c3cnc(NCC4CC4)cn3)cc2)CCOCC1 [Example 128]	–	–	–	> 2500 nM	5.08 nM	4.36 nM
O=C(NO)C1(S(=O)(=O)c2ccc(-c3ccc(CCC4CCCCC4)cn3)cc2)CCOCC1 [Example 129]	–	–	–	4410 nM	0.94 nM	8.56 nM
CC(C)(C)CCNc1cnc(-c2ccc(S(=O)(=O)C3(C(=O)NO)CCOCC3)cc2)cn1 [Example 130]	–	–	–	> 1250 nM	14.2 nM	12.8 nM
O=C(NO)C1(S(=O)(=O)c2ccc(-c3cnc(N4CCCCC4)cn3)cc2)CCOCC1 [Example 131]	–	–	–	> 10000 nM	0.89 nM	5.3 nM
O=C(NO)C1(S(=O)(=O)c2ccc(-c3cscc3-c3ccc(F)cc3)cc2)CCOCC1 [Example 132]	–	–	–	> 10000 nM	153 nM	298 nM
O=C(NO)C1(S(=O)(=O)c2ccc(-c3ccc(CCC(F)(C(F)(F)F)C(F)(F)F)cn3)cc2)CCOCC1 [Example 133]	–	–	–	7400 nM	11.9 nM	35.2 nM
